Experimental data: US9133207B2, “Tetrandrine derivatives with substituted 5-carbon, preparation method and use thereof” (Hangzhou Bensheng Pharmaceutical Co., Ltd., priority 2011, dated 2015)
Values after ≈ are worked out from the molar mass of the structure shown.

Legend:
[1] = tested on: H9 (acute lymphoblastic leukemia, ALL); assay: Leukemia cell growth inhibition, MTT, 72 h (Example 5); assay type: cell-based, human; conditions: Homo sapiens; 72 h, MTT
Summary of the method: (§1)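 RPMI 1640 + 10% FBS, 6000 cells/well; tetrandrine derivatives at various concentrations; 37° C, 5% CO2, 72 h; viability by MTT.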

[2] = tested on: Jurkat (acute lymphoblastic leukemia, ALL); assay: as above; assay type: cell-based, human; conditions: Homo sapiens, Jurkat; 72 h, MTT
Summary of the method: as §1

[3] = tested on: K562/adr (drug-resistant, chronic myeloid leukemia, CML); assay: as above; assay type: cell-based, human; conditions: Homo sapiens, K562/Adr; 72 h, MTT
Summary of the method: as §1

[4] = tested on: Kasumi-1 (acute myeloid leukemia M2 type, AML-M2); assay: as above; assay type: cell-based, human; conditions: Homo sapiens, Kasumi 1
Summary of the method: as §1

[5] = tested on: NB4 (acute promyelocytic leukemia, AML); assay: as above; assay type: cell-based, human; conditions: Homo sapiens; 72 h, MTT
Summary of the method: as §1

[6] = tested on: RPMI8226 (multiple myeloma); assay: Multiple myeloma cell growth inhibition, MTT, 72 h (Example 6); assay type: cell-based, human; conditions: Homo sapiens, RPMI-8226; 72 h, MTT, RPMI8226
Summary of the method: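 Viability was read by MTT after 72 h of compound exposure at 37 °C, 5% CO2. Each well held 6000 RPMI8226 cells in 1640 medium containing 10% fetal bovine serum, with derivatives added at various concentrations.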

[7] = tested on: CaES-17 (esophageal cancer cell); assay: Solid tumor cell growth inhibition, MTT, 72 h (Example 7); assay type: cell-based, human; conditions: Homo sapiens, CaEs17; 72 h, MTT, CAES-17
Summary of the method: (§2)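 Cell viability was quantified by MTT 72 h after adding derivatives at different concentrations to 4000 cells/well. Untreated cells served as the 100% reference.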

[8] = tested on: Hep-2 (laryngeal carcinoma); assay: as above; assay type: cell-based, human; conditions: Homo sapiens; 72 h, MTT, Hep 2
Summary of the method: as §2

MG63 (osteosarcoma) = assay: as above; assay type: cell-based, human; conditions: Homo sapiens; 72 h, MTT, MG-63
Summary of the method: as §2

[9] = tested on: PANC-1 (pancreatic cancer); assay: as above; assay type: cell-based, human; conditions: Homo sapiens; 72 h, MTT, PANC-1
Summary of the method: as §2

PC-3 (prostate cancer) = assay: as above; assay type: cell-based, human; conditions: Homo sapiens; 72 h, MTT, PC-3
Summary of the method: as §2

A549 (human lung cancer) = assay: as above; assay type: cell-based; conditions: Homo sapiens; 72 h, MTT, A549
Summary of the method: as §2

[10] = tested on: Becap37 (human breast cancer cell); assay: as above; assay type: cell-based; conditions: Homo sapiens; 72 h, MTT, Becap-37
Summary of the method: as §2

[11] = tested on: CNE (nasopharyngeal carcinoma cell); assay: as above; assay type: cell-based; conditions: Homo sapiens
Summary of the method: as §2

[12] = tested on: Hela (human cervical cancer cell); assay: as above; assay type: cell-based; conditions: Homo sapiens; 72 h, MTT, Hela
Summary of the method: as §2

[13] = tested on: Huh7 (human liver cancer cell); assay: as above; assay type: cell-based; conditions: Homo sapiens; 72 h, MTT, Huh-7
Summary of the method: as §2

[14] = tested on: MGC 803 (human gastric cancer cell); assay: as above; assay type: cell-based; conditions: Homo sapiens
Summary of the method: as §2

[15] = tested on: RKO (human colon adenocarcinoma cell); assay: as above; assay type: cell-based; conditions: Homo sapiens; 72 h, MTT, RKO
Summary of the method: as §2

[16] = tested on: SK-OV-3 (ovarian cancer cell); assay: as above; assay type: cell-based; conditions: Homo sapiens
Summary of the method: as §2

[17] = tested on: U87 MG (malignant glioma cell); assay: as above; assay type: cell-based; conditions: Homo sapiens, U-87 MG
Summary of the method: as §2

[18] = tested on: human non-small cell lung cancer cell line A549 transplanted tumor; assay: Experiment 8-1: transplanted tumor of human lung cancer in nude mice; assay type: in vivo, BALB/c nude mice
Procedure: Cell lines: human non-small cell lung cancer cell line A549, from China Center for Type Culture Collection (CCTCC);
(§3) BS-TE-403 and BS-TE-333 (the present invention), and tetrandrine TTD from Jiangxi Jinfurong Pharmaceutical Co., Ltd. All compounds are administered at the dosage of 50 mg/kg weight each time.
Under sterile conditions, the above tumor cells in the logarithmic growth phase are collected and injected by subcutaneous injection in an amount of 5×10^6/0.2 ml/nude mice (cell viability>95%) into the right subaxillary of the nude mice, thus establishing a transplated tumor model of human non-small cell lung cancer in nude mice.
(§4) The experiments are divided into 4 groups: negative control group (solvent group), positive control group (lead compound TTD group), BS-TE-403 group and BS-TE-333 group.
(§5) The administrations are successive for 10 days.

[19] = Experiment 8-1: body weight of nude mice, preliminary toxicity; assay type: in vivo, BALB/c nude mice
Procedure: as §3, §4, §5

With `COc1ccc2cc1Oc1ccc(cc1)C[C@H]1c3cc(c(OC)cc3CCN1C)Oc1c(OC)c(OC)c(CN3CCN(C(C)C)CC3)c3c1[C@H](C2)N(C)CC3` [BS-TE-333] the IC50 [1] was 1.14 mg/L (≈ 1.49 µM), the IC90 [1] was 1.84 mg/L (≈ 2.41 µM) and the IC50 [2] was 0.81 mg/L (≈ 1.06 µM). For the same compound, the IC90 [2] was 4.18 mg/L (≈ 5.48 µM), the IC50 [3] was 0.43 mg/L (≈ 0.564 µM) and the IC90 [3] was 1.91 mg/L (≈ 2.5 µM). For the same compound, the IC50 [4] was 0.77 mg/L (≈ 1.01 µM), the IC90 [4] was 3.29 mg/L (≈ 4.31 µM) and the IC50 [5] was 0.48 mg/L (≈ 0.629 µM). The IC90 [5] was 1 mg/L (≈ 1.31 µM), the IC50 [6] was 0.06 mg/L (≈ 0.0786 µM) and the IC90 [6] was 2.34 mg/L (≈ 3.07 µM). For the same compound, the IC50 [7] was 2.35 mg/L (≈ 3.08 µM), the IC90 [7] was 17.1 mg/L (≈ 22.4 µM) and the IC50 [8] was 1.72 mg/L (≈ 2.25 µM). The IC90 [8] was 9.69 mg/L (≈ 12.7 µM), the IC50 (MG63 (osteosarcoma)) was 0.7 mg/L (≈ 0.917 µM) and the IC90 (MG63 (osteosarcoma)) was 1.3 mg/L (≈ 1.7 µM). The IC50 [9] was 1.69 mg/L (≈ 2.21 µM), the IC90 [9] was 9.93 mg/L (≈ 13 µM) and the IC50 (PC-3 (prostate cancer)) was 1.85 mg/L (≈ 2.42 µM). For the same compound, the IC90 (PC-3 (prostate cancer)) was 2.9 mg/L (≈ 3.8 µM), the IC50 (A549 (human lung cancer)) was 1.5 mg/L (≈ 1.97 µM) and the IC90 (A549 (human lung cancer)) was 11 mg/L (≈ 14.4 µM). It also gave an IC50 [10] of 1 mg/L (≈ 1.31 µM), an IC90 [10] of 4.5 mg/L (≈ 5.9 µM) and an IC50 [11] of 2.6 mg/L (≈ 3.41 µM). For the same compound, the IC90 [11] was 5.6 mg/L (≈ 7.34 µM), the IC50 [12] was 1.69 mg/L (≈ 2.21 µM) and the IC90 [12] was 5 mg/L (≈ 6.55 µM). It also gave an IC50 [13] of 1.64 mg/L (≈ 2.15 µM), an IC90 [13] of 2.45 mg/L (≈ 3.21 µM) and an IC50 [14] of 0.84 mg/L (≈ 1.1 µM). For the same compound, the IC90 [14] was 5.3 mg/L (≈ 6.95 µM), the IC50 [15] was 0.54 mg/L (≈ 0.708 µM) and the IC90 [15] was 1.74 mg/L (≈ 2.28 µM). It also gave an IC50 [16] of 3.04 mg/L (≈ 3.98 µM), an IC90 [16] greater than 16 mg/L and an IC50 [17] of 0.5 mg/L (≈ 0.655 µM). The IC90 [17] was 1.51 mg/L (≈ 1.98 µM), the “effect on transplanted tumor of human lung cancer in nude mice (FIG. 2)” value ([18]; 50 mg/kg) was “exhibit inhibiting effects” and the “Mass of tumor” value ([18]; 50 mg/kg intragastric, 3 times a day, 10 days, Day 27, M±SD) was 639.25 ± 285.20 mg. For the same compound, the “Tumor Inhibition rate (%)” value ([18]; 50 mg/kg intragastric, 3 times a day, 10 days, Day 27, control = zero) was 31.15%, the “toxic or side effect under such a dosage” value ([19]; 50 mg/kg) was “has caused some toxic and side effect” and the “weight loss as compared with the weight in the control group (FIG. 1)” value ([19]; 50 mg/kg) was “relatively obvious”. For the same compound, the “Weight (g) Final” value ([19]; 50 mg/kg intragastric, 3 times a day, 10 days, final body weight, M±SD) was 16.95 ± 2.30 g and the “Weight (g) Initial” value ([19]; nude mice body weight before administration, M±SD) was 21.3 ± 0.24 g.

`COCC(C)OCc1c2c3c(c(OC)c1OC)Oc1cc4c(cc1OC)CCN(C)[C@H]4Cc1ccc(cc1)Oc1cc(ccc1OC)C[C@@H]3N(C)CC2` (stereo partly drawn) [BS-TE-406] gave an IC50 [1] of 1.38 mg/L (≈ 1.9 µM), an IC90 [1] of 3.41 mg/L (≈ 4.7 µM) and an IC50 [2] of 1.57 mg/L (≈ 2.17 µM). It also gave an IC90 [2] of 9.9 mg/L (≈ 13.7 µM), an IC50 [3] of 1.44 mg/L (≈ 1.99 µM) and an IC90 [3] of 5.38 mg/L (≈ 7.42 µM). It also gave an IC50 [4] of 1.33 mg/L (≈ 1.83 µM), an IC90 [4] of 6.67 mg/L (≈ 9.2 µM) and an IC50 [5] of 1.7 mg/L (≈ 2.35 µM). The IC90 [5] was 5.5 mg/L (≈ 7.59 µM), the IC50 [6] was 0.52 mg/L (≈ 0.717 µM) and the IC90 [6] was 2.81 mg/L (≈ 3.88 µM). The IC50 [7] was 3.94 mg/L (≈ 5.44 µM), the IC90 [7] was 16.4 mg/L (≈ 22.7 µM) and the IC50 [8] was 2.4 mg/L (≈ 3.31 µM). The IC90 [8] was 6.87 mg/L (≈ 9.48 µM), the IC50 (MG63 (osteosarcoma)) was 2.49 mg/L (≈ 3.43 µM) and the IC90 (MG63 (osteosarcoma)) was 6.36 mg/L (≈ 8.77 µM). For the same compound, the IC50 [9] was 2.73 mg/L (≈ 3.77 µM), the IC90 [9] was 16 mg/L (≈ 22.1 µM) and the IC50 (PC-3 (prostate cancer)) was 3.32 mg/L (≈ 4.58 µM). It also gave an IC90 (PC-3 (prostate cancer)) of 6.95 mg/L (≈ 9.59 µM), an IC50 (A549 (human lung cancer)) of 8.4 mg/L (≈ 11.6 µM) and an IC90 (A549 (human lung cancer)) greater than 16 mg/L. It also gave an IC50 [10] of 3.5 mg/L (≈ 4.83 µM), an IC90 [10] of 10.8 mg/L (≈ 14.9 µM) and an IC50 [11] of 1.6 mg/L (≈ 2.21 µM). The IC90 [11] was 3.49 mg/L (≈ 4.81 µM), the IC50 [12] was 1.07 mg/L (≈ 1.48 µM) and the IC90 [12] was 2.89 mg/L (≈ 3.99 µM). It also gave an IC50 [13] of 2.31 mg/L (≈ 3.19 µM), an IC90 [13] of 3.43 mg/L (≈ 4.73 µM) and an IC50 [14] of 2.87 mg/L (≈ 3.96 µM). For the same compound, the IC90 [14] was 8 mg/L (≈ 11 µM), the IC50 [15] was 0.89 mg/L (≈ 1.23 µM) and the IC90 [15] was 1.99 mg/L (≈ 2.75 µM). For the same compound, the IC50 [16] was 7.1 mg/L (≈ 9.79 µM), the IC90 [16] was greater than 16 mg/L and the IC50 [17] was 2.86 mg/L (≈ 3.95 µM). The IC90 [17] was 6.66 mg/L (≈ 9.19 µM).
